Positions of bridges follow the written chain, without caps; N, C: chain ends. Non-standard residues stand in square brackets, D forms with d. Residues, ends and D or L forms follow the SMILES beside them. *: point of attachment. Me3N+(CH2)2O(CH2)2O(CH2)2CO = C[N+](C)(C)CCOCCOCCC(=O)*; Trp(7-Me) = Cc1cccc2c(C[C@H](N)C(=O)O)c[nH]c12; Hexanoyl(6-NMe3+) = C[N+](C)(C)CCCCCC(=O)*; dLys(Me3) = C[N+](C)(C)CCCC[C@@H](N)C(=O)O; 2Nal = N[C@@H](Cc1ccc2ccccc2c1)C(=O)O; AEF = NCCOc1ccc(C[C@H](N)C(=O)O)cc1; 3Pal = N[C@@H](Cc1cccnc1)C(=O)O; X14 = C[N+](C)(C)CCc1cn(CC*)nn1; Lys(Me) = CNCCCC[C@H](N)C(=O)O; X7 = COCCOCCOCCOCCOCCOCCC(=O)*; Pen = CC(C)(S)[C@H](N)C(=O)O; X8 = C[N+](C)(C)CCCCCCCC*; Thp = NC1(C(=O)O)CCOCC1; X3 = C[N+](C)(C)CCCCC*; Sar = CNCC(=O)O

A short description of the series: Exposed Polar Surface Area (EPSA). Type of series: physicochemical. The following applies: SFC on Chirex 3014 column; sample 1 mM DMSO stock; read-out: EPSA. The procedure, abridged: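 Compounds, as 1 mM DMSO stock, were injected in duplicate onto an SFC Chirex 3014 column at 35 °C and eluted with a CO2/methanol (20 mM ammonium formate) gradient. EPSA values in Å^2 were derived from retention times using a linear fit to eight calibration standards, reinjected every 20 compounds.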
Take `COCCOCCOCCOCCOCCOCCC(=O)N(C)CCCC[C@@H]1NC(=O)[C@H](Cc2c[nH]c3c(C)cccc23)NC(=O)[C@H]([C@@H](C)O)NC(=O)[C@H](CC(N)=O)NC(=O)[C@@H](NC(C)=O)C(C)(C)SSC(C)(C)[C@@H](C(=O)N[C@@H](Cc2ccc(OCCN)cc2)C(=O)N[C@@H](Cc2ccc3ccccc3c2)C(=O)NC2(C(=O)N[C@@H](CCCCNC(C)=O)C(=O)N[C@@H](CC(N)=O)C(=O)N[C@@H](Cc3cccnc3)C(=O)N(C)CC(N)=O)CCOCC2)NC1=O` [compound 124] (Ac-[Pen]NT[Trp(7-Me)][Lys(Me)](X7)[Pen][AEF][2Nal][Thp]K(Ac)N[3Pal][Sar]-NH2; disulfide 1-6): the EPSA was 158 A^2.

Take `CC(=O)NCCCC[C@@H]1NC(=O)[C@H](Cc2c[nH]c3c(C)cccc23)NC(=O)[C@H]([C@@H](C)O)NC(=O)[C@H](CC(N)=O)NC(=O)[C@@H](NC(C)=O)C(C)(C)SSC(C)(C)[C@@H](C(=O)N[C@@H](Cc2ccc(OCCn3cc(CC[N+](C)(C)C)nn3)cc2)C(=O)N[C@@H](Cc2ccc3ccccc3c2)C(=O)NC2(C(=O)N[C@@H](CCCCNC(C)=O)C(=O)N[C@@H](CC(N)=O)C(=O)N[C@@H](Cc3cccnc3)C(=O)N(C)CC(N)=O)CCOCC2)NC1=O` [compound 235] (Ac-[Pen]NT[Trp(7-Me)]K(Ac)[Pen]Y(X14)[2Nal][Thp]K(Ac)N[3Pal][Sar]-NH2; disulfide 1-6 (inferred)): the EPSA is 149 A^2.

Regarding `CC(=O)NCCCC[C@@H]1NC(=O)[C@H](Cc2c[nH]c3c(C)cccc23)NC(=O)[C@H]([C@@H](C)O)NC(=O)[C@H](CC(N)=O)NC(=O)[C@@H](NC(=O)CCCCC[N+](C)(C)C)C(C)(C)SSC(C)(C)[C@@H](C(=O)N[C@@H](Cc2ccc(OCCN)cc2)C(=O)N[C@@H](Cc2ccc3ccccc3c2)C(=O)NC2(C(=O)N[C@@H](CCCCNC(C)=O)C(=O)N[C@@H](CC(N)=O)C(=O)N[C@@H](Cc3cccnc3)C(=O)N(C)CC(N)=O)CCOCC2)NC1=O` [compound 89] ({Hexanoyl(6-NMe3+)}-[Pen]NT[Trp(7-Me)]K(Ac)[Pen][AEF][2Nal][Thp]K(Ac)N[3Pal][Sar]-NH2; disulfide 1-6 (inferred)), the EPSA worked out at 160 A^2.

As for `CC(=O)NCCCC[C@@H]1NC(=O)[C@H](Cc2c[nH]c3c(C)cccc23)NC(=O)[C@H]([C@@H](C)O)NC(=O)[C@H](CC(N)=O)NC(=O)[C@@H](NC(=O)[C@@H](CCCC[N+](C)(C)C)NC(C)=O)C(C)(C)SSC(C)(C)[C@@H](C(=O)N[C@@H](Cc2ccc(OCCCCC[N+](C)(C)C)cc2)C(=O)N[C@@H](Cc2ccc3ccccc3c2)C(=O)NC2(C(=O)N[C@@H](CCC(=O)O)C(=O)N[C@@H](CC(N)=O)C(=O)N[C@@H](Cc3cccnc3)C(=O)N(C)CC(N)=O)CCOCC2)NC1=O` [compound 446, MeCO-k(Me)3-Pen(3)-N-T-7MeW-K(Ac)-Pen(3)-TMAPF-2Nal-THP-E-N-3Pya-Sar-CONH2] (Ac-[dLys(Me3)][Pen]NT[Trp(7-Me)]K(Ac)[Pen]Y(X3)[2Nal][Thp]EN[3Pal][Sar]-NH2; disulfide 2-7), the EPSA was 173 A^2.

As for `CC(=O)N(C)CCCC[C@@H]1NC(=O)[C@H](Cc2c[nH]c3c(C)cccc23)NC(=O)[C@H]([C@@H](C)O)NC(=O)[C@H](CC(=O)N(C)C)NC(=O)[C@@H](NC(=O)CCOCCOCC[N+](C)(C)C)C(C)(C)SSC(C)(C)[C@@H](C(=O)N[C@@H](Cc2ccc(OCCCCCCCC[N+](C)(C)C)cc2)C(=O)N[C@@H](Cc2ccc3ccccc3c2)C(=O)NC2(C(=O)N[C@@H](CCCCN(C)C(C)=O)C(=O)N[C@@H](CC(N)=O)C(=O)N[C@@H](Cc3cccnc3)C(=O)N(C)CC(=O)N(C)C)CCOCC2)NC1=O` [compound 295, cPEG3aCO-Pen(3)-N(N(Me)2)-T-7MeW-K(NMeAc)-Pen(3)-TMA8F-2Nal-THP-K(NMeAc)-N-3Pya-Sar-CON(Me)2] ({Me3N+(CH2)2O(CH2)2O(CH2)2CO}-[Pen]D(NMe2)T[Trp(7-Me)][Lys(Me)](Ac)[Pen]Y(X8)[2Nal][Thp][Lys(Me)](Ac)N[3Pal][Sar]-NMe2; disulfide 1-6), the EPSA amounted to 150 A^2.

The values are drawn from US20260022143A1, “Cyclic Peptide Inhibitors of IL-23” (JANSSEN PHARMACEUTICA NV, priority 2022, published 2026).
